Measurements as given in the NIST ThermoML archive (doi:10.1021/je020228x).
± gives the expanded uncertainty stated by the source.

Assays:
[1] = molar enthalpy of transition or fusion; conditions: Crystal, DSC
[2] = Crystal
[3] = molar heat capacity at constant pressure; conditions: 445.51 K; 101.33 kPa; Crystal; Small sample (50 mg) DSC

| molar enthalpy of transition or fusion ([1]; 384.43 K) [kcal/mol] | molar enthalpy of transition or fusion ([1]; 445.51 K) [kcal/mol] | Normal melting temperature ([2]; DTA) [°C] | molar heat capacity at constant pressure [3] [J/K/mol] | molar enthalpy of transition or fusion ([1]; 383.93 K) [kcal/mol] | molar enthalpy of transition or fusion ([1]; 451.43 K) [kcal/mol] | Normal melting temperature ([2]; visual observation) [°C] | SMILES |
| --- | --- | --- | --- | --- | --- | --- | --- |
| 0.17 | 4.89 | 172.36 | 49.09 | – | – | – | c1ccc2[nH]cnc2c1 [benzimidazole] |
| – | – | 178.28 | – | 0.14 | 4.9 | – | Cc1nc2ccccc2[nH]1 [2-methylbenzimidazole] |
| – | – | – | – | – | – | 24.84 ± 0.39 | CC(C)(C)O [2-methylpropan-2-ol] |
